# Experimental data from ChEMBL document CHEMBL1201862, “PubChem BioAssay data set” (2004).
# Active and inactive are the calls of the source.
# Tests used:
# INS1 = test: beta cell apoptosis inhibitors, cytokine rescue, dose response, luminescence, retest (AID 449756); assay type: functional, cell-based; settings: Rattus norvegicus;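 further: cell death triggered by IL-1 beta plus TNF-alpha plus IFN-gamma mixture; protective hits raise ATP signal compared with cytokine alone wells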
# [1] = inhibitors of clade B AD8 Env fusion, dose response, cell-based, cherry-pick (AID 652062); assay type: functional;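 further: luciferase signal from cell-cell fusion driven by HIV-1 clade B AD8 Env; potency is for inhibitors of fusion seen as a drop in luminescence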
# [2] = CEM21 lymphoblast cell cytotoxicity, dose response, cytotoxicity control for viral fusion inhibitor project, CellTiter-Glo luminescence, cherry-picked (AID 652042); assay type: functional, cell-based;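 further: potency for signal decrease meaning cytotoxicity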
# BJ [3] = test: cytotoxicity toward Ras-transformed BJeLR fibroblasts, dose response, cell-based, alamar blue fluorescence, cherrypicked samples (AID 2631); assay type: functional; settings: Homo sapiens;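 further: confirmatory dose-response assay in RAS-dependent BJ fibroblasts engineered with TERT, LT and ST, with cytotoxicity read by fluorescence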
# [4] = off-target signal loss in HeLa-CEM21 co-culture – HeLa F-luc CTL cells, cherry-picked, counter-screen for HIV-1 Env fusion inhibitor project, dose response (AID 652040); assay type: functional, cell-based;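 further: potency for signal decrease marking cytotoxic or nonspecific inhibition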
# [5] = cytotoxicity toward DRD oncogenic fibroblasts, dose response, cell-based, non-viral oncogenic, luminescence (AID 1934); assay type: functional; settings: Homo sapiens
# BJ [6] = test: cytotoxicity toward BJ-TERT fibroblasts, dose response, cell-based, RAS-independent, luminescence (AID 1933); assay type: functional; settings: Homo sapiens
# BJ [7] = test: cytotoxicity toward BJ-TERT-LT-ST fibroblasts, dose response, cell-based, RAS-independent, luminescence (AID 1935); assay type: functional; settings: Homo sapiens;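 further: BJ fibroblasts immortalized with TERT plus LT and ST oncogenes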
# [8] = biological target: Luciferin 4-monooxygenase (Photinus pyralis, UniProt P08659); test: firefly luciferase enzyme inhibitors, dose response, biochemical, luminescence (AID 1891)
# BJ [9] = test: cells; assay type: functional, cell-based; settings: Homo sapiens
# [10] = inhibitors of HIV Env-driven cell fusion, dose response, cherry-pick (AID 652057); assay type: functional, cell-based
# [11] = A Cell Based Secondary Assay To Explore Cytotoxicity of Compounds that Sensitize Mycobacterium Tuberculosis to Beta-Lactam Antibiotics.; assay type: functional
# [12] = Luminescence Cell-Based Dose Confirmation HTS to Identify Inhibitors of Platelet Dense Granule Release. [Related pubchem assays: 1663 (Primary HTS), 1678 (Summary of Project)]; assay type: functional
# [13] = HEK293 cell viability, dose response, counter-screen for EBV LMP1 inhibitor project, dry powder, set 2 (AID 624374); assay type: functional
# Cryptococcus neoformans [14] = test: Cryptococcus growth inhibition by alamar blue – cell lysis, cherry-picks, replicate tests, mechanism study for C. neoformans antifungal project, dose response (AID 686999); assay type: functional, organism-based
# Paired box protein Pax-8 = Paired box protein Pax-8 (Homo sapiens, UniProt Q06710); test: inhibitors of PAX8-driven TPO luciferase reporter, dose response, RMG-I cells, cherry-pick (AID 687027); assay type: functional, cell-based;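 further: luciferase reporter driven by Pax8 target thyroperoxidase promoter measured by SteadyGlo luminescence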
# Cryptococcus neoformans [15] = test: PubChem AID 686997; assay type: functional, organism-based; settings: Cryptococcus neoformans
# HeLa = test: HeLa cell cytotoxicity, dose response, cytotoxicity control, ATP luminescence, cherry-pick samples (AID 687004); assay type: functional, cell-based; settings: Homo sapiens
# [16] = biological target: T1, Sentrin-specific protease 8 (Homo sapiens, UniProt Q96LD8); assay type: functional
# T1 sequence (Q96LD8 whole entry): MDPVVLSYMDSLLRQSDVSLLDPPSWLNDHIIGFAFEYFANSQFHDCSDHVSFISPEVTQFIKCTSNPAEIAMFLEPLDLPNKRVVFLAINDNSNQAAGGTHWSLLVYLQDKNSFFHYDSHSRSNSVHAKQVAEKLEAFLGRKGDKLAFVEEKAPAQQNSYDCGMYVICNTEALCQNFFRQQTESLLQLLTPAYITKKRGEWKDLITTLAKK
# [17] = biological target: T1, Sentrin-specific protease 8; assay type: functional; remark: listed apart in the source
# Caspase-3 = biological target: T2, Caspase-3 (Homo sapiens, UniProt P42574); test: Dose-response confirmation of uHTS inhibitor hits of Sentrin-Specific Protease 8 in a Caspase-3 Fluorescence assay.; assay type: functional
# T2 sequence (P42574 whole entry): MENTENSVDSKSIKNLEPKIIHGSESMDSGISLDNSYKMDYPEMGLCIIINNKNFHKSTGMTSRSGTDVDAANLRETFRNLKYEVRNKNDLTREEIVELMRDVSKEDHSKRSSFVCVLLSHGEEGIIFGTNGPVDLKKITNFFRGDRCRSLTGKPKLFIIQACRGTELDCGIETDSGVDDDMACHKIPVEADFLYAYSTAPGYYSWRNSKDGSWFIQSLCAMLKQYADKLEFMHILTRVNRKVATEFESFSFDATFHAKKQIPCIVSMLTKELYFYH
# [18] = Counterscreen for activators of the function of SWI/SNF related, matrix associated, actin dependent regulator of chromatin, subfamily a, member 2 (SMARCA2, BRM): Luminescence-based cell-based high throughput dose response assay to identify non-selective compounds using the VP16 reporter assay.; assay type: functional
# [19] = biological target: SWI/SNF-related matrix-associated actin-dependent regulator of chromatin subfamily A member 2 (Homo sapiens, UniProt P51531); test: Luminescence-based cell-based high throughput dose response assay to identify activators of the function of SWI/SNF related, matrix associated, actin dependent regulator of chromatin, subfamily a, member 2 (SMARCA2, BRM).; assay type: functional
# [20] = biological target: Hepatocyte nuclear factor 4-alpha (Homo sapiens, UniProt P41235); assay type: functional, cell-based;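 further: biochemical luminescence-based dose-response counterscreen measuring inhibition of HNF4 dimerization, run alongside a screen for blockers of ABHD5–perilipin-5 interaction; split luciferase complementation of HNF4 fusion proteins in cell lysate measuring dimerization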
# [21] = biological target: T3, Small ubiquitin-related modifier 1 (Homo sapiens, UniProt P63165); test: inhibitors of SUMO1 partner interactions, dose response, biochemical, FRET (AID 624383); assay type: functional; settings: read-out: IC50_Mean
# [22] = biological target: T3, Small ubiquitin-related modifier 1; test: inhibitors of SUMO1 peptide binding, dose response, biochemical, fluorescence polarization, uHTS hits (AID 624382); assay type: functional; settings: read-out: IC50_Mean
# [23] = biological target: 5-hydroxytryptamine receptor 2A (Mus musculus, UniProt P35363); assay type: functional, cell-based;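 further: CHO-K1 cells with tagged receptor and beta-arrestin; agonist potency measured as compound-induced activation of the receptor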
# Mu-type opioid receptor = Mu-type opioid receptor (Homo sapiens, UniProt P35372); assay type: functional, cell-based;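 further: U2OS cells with beta-arrestin recruitment to OPRM1 by beta-gal complementation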
# [24] = HEp-2 cell cytotoxicity, dose response, cytotoxicity control for RSV inhibitor project, HTS (AID 2410); assay type: functional; settings: human respiratory syncytial virus
# [25] = biological target: T4, Methionyl-tRNA synthetase, putative (Trypanosoma brucei brucei, UniProt Q38C91); assay type: functional, Trypanosoma brucei brucei strain 927/4 GUTat10.1
# T4 sequence (Q38C91 whole entry): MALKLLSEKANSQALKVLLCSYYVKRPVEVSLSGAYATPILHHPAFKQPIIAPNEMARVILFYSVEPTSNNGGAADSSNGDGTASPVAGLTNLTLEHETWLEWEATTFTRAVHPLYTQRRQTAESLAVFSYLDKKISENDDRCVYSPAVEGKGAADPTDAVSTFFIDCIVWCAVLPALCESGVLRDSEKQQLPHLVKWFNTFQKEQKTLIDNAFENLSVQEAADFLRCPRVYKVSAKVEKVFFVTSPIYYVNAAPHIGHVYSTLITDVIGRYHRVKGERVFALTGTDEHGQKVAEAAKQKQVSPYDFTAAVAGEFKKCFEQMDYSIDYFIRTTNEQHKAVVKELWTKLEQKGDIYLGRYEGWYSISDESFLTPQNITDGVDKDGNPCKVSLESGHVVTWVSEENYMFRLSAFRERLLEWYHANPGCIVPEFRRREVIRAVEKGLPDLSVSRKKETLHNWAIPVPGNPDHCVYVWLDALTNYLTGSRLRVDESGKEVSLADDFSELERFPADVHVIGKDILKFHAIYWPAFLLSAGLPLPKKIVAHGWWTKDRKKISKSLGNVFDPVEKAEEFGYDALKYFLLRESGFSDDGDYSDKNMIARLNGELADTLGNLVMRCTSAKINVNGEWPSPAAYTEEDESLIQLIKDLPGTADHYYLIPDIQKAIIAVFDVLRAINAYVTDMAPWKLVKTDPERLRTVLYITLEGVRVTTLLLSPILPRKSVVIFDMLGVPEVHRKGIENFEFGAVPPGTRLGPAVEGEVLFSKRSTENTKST
# [26] = Counterscreen for inhibitors of Trypanosoma brucei methionyl tRNA synthetase (MetRS): Luminescence-based cell-based high throughput dose response assay to identify compounds that are cytotoxic to Jurkat human T lymphocyte cells.; assay type: functional
# [27] = biological target: T4, Methionyl-tRNA synthetase, putative; assay type: functional, Trypanosoma brucei brucei strain 927/4 GUTat10.1; remark: listed apart in the source
# [28] = biological target: T5, Sentrin-specific protease 1 (Homo sapiens, UniProt Q9P0U3); test: Dose response confirmation of small molecule inhibitors of the catalytic domain of the SUMO protease, SENP1 in a FRET assay.; assay type: functional; settings: read-out: IC50_Mean
# T5 sequence (Q9P0U3 whole entry): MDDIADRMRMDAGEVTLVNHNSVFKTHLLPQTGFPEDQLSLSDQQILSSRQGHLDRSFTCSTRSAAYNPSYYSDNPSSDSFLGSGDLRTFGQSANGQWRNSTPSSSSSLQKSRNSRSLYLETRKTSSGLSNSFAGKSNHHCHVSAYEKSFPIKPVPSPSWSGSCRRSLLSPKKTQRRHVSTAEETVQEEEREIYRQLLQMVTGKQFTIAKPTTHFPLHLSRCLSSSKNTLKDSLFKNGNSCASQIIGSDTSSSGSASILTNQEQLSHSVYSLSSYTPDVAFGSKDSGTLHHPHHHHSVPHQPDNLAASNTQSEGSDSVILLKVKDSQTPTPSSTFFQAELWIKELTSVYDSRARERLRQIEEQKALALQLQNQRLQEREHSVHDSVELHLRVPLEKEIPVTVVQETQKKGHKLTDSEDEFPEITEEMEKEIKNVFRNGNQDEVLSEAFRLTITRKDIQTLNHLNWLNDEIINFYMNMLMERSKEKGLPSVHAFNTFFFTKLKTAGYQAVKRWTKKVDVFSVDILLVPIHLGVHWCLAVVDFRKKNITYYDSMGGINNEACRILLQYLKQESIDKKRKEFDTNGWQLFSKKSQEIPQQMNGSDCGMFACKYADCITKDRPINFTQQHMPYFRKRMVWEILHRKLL
# [29] = biological target: T5, Sentrin-specific protease 1; test: potency of human SENP1 inhibitors, dose response, biochemical, kinetic FRET (AID 651697); assay type: functional; settings: read-out: IC50_Mean
# [30] = biological target: T6, Long-chain-fatty-acid--AMP ligase FadD28 (Mycobacterium tuberculosis, UniProt P9WQ59); test: Fluorescence polarization aasay to screen for inhibitors that compete for the binding of FadD28 to a bisubstrate Measured in Biochemical System Using Plate Reader - 2147-01_Inhibitor_Dose_CherryPick_Activity.; assay type: functional, Mycobacterium tuberculosis H37Rv
# T6 sequence (P9WQ59 whole entry): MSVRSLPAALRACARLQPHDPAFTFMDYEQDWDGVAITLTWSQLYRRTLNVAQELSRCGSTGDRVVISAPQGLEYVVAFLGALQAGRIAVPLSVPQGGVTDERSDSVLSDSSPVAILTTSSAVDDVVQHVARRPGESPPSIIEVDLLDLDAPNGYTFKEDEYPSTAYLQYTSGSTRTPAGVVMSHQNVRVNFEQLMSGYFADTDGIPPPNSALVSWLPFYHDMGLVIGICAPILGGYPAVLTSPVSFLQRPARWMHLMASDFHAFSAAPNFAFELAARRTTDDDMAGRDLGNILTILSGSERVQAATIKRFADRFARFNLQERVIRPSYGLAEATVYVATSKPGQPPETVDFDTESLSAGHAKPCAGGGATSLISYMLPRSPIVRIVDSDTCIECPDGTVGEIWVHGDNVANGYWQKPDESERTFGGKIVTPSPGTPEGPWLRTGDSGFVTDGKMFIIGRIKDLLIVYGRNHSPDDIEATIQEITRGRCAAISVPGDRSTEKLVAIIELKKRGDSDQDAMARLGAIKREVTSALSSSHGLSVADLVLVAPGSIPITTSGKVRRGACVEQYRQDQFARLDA
# T3 sequence (P63165 whole entry): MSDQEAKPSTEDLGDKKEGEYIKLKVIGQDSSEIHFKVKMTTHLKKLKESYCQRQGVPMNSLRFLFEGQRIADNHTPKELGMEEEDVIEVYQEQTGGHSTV
# Chain of SWI/SNF-related matrix-associated actin-dependent regulator of chromatin subfamily A member 2 (P51531 whole entry, the tested form may be a part): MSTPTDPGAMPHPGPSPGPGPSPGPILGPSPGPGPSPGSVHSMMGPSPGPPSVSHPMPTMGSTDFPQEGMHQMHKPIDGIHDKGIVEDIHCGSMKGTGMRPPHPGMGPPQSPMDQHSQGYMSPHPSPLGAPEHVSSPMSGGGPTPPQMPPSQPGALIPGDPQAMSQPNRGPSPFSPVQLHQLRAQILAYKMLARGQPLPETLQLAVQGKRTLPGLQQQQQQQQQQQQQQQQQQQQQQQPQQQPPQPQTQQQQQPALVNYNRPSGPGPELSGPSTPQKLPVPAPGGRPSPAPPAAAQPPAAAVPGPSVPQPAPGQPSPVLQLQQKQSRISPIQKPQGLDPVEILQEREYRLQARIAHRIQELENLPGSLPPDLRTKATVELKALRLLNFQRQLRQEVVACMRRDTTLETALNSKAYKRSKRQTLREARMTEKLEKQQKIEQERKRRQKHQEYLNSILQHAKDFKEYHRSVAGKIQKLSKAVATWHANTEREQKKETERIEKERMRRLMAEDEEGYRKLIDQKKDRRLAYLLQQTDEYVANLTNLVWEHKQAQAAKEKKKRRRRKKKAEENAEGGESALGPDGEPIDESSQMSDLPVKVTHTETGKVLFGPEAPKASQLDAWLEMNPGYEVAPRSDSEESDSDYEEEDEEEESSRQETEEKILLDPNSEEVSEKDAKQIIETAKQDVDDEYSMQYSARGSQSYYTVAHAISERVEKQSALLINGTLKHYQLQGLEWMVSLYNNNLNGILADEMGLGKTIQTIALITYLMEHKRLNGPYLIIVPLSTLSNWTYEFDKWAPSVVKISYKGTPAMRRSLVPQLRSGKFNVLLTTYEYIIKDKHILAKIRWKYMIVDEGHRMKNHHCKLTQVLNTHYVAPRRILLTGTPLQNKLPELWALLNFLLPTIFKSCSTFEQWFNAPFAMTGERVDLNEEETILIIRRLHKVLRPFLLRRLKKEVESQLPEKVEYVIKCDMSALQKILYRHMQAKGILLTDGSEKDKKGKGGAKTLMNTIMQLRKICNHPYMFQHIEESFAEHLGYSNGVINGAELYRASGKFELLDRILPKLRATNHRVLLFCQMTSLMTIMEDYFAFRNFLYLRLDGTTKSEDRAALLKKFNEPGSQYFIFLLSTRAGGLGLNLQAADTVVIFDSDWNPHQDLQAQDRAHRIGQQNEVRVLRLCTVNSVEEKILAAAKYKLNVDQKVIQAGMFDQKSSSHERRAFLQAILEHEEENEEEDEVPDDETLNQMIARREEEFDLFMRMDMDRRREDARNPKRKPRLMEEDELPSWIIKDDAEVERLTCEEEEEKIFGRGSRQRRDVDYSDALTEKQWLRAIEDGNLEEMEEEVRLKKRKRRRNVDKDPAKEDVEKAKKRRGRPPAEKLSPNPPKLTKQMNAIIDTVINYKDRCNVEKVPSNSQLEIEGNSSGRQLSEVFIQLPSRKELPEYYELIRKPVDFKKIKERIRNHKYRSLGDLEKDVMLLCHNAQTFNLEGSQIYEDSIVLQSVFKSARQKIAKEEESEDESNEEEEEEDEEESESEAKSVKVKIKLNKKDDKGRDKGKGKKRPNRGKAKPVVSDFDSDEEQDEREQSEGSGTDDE
# Chain of Hepatocyte nuclear factor 4-alpha (P41235 whole entry, the tested form may be a part): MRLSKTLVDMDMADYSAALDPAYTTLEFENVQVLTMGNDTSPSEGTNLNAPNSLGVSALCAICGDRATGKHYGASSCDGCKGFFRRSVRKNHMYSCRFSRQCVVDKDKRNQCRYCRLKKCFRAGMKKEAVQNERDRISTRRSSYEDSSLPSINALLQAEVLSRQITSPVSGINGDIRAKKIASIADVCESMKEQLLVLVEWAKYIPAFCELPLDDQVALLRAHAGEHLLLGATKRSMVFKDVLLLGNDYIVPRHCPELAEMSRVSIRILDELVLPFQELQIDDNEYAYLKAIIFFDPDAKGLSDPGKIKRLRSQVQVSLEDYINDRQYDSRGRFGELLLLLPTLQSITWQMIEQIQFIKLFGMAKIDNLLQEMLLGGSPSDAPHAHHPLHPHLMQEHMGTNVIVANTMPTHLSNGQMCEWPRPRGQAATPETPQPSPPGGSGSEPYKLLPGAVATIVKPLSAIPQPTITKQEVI
# Chain of Luciferin 4-monooxygenase (P08659 whole entry): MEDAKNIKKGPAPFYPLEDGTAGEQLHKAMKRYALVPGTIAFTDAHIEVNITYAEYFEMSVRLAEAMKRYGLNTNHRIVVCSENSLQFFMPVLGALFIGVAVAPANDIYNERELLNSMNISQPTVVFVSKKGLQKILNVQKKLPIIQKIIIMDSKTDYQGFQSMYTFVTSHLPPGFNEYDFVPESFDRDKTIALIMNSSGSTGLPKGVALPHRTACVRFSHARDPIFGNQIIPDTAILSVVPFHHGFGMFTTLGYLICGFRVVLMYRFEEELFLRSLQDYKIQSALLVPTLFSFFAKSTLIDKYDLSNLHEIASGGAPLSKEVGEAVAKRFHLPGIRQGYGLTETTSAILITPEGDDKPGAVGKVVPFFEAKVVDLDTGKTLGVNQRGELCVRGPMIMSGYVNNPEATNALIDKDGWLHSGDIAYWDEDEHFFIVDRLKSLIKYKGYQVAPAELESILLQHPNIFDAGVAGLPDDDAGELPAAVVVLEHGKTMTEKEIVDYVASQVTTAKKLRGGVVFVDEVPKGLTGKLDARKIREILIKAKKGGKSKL
# Chain of Paired box protein Pax-8 (Q06710 whole entry): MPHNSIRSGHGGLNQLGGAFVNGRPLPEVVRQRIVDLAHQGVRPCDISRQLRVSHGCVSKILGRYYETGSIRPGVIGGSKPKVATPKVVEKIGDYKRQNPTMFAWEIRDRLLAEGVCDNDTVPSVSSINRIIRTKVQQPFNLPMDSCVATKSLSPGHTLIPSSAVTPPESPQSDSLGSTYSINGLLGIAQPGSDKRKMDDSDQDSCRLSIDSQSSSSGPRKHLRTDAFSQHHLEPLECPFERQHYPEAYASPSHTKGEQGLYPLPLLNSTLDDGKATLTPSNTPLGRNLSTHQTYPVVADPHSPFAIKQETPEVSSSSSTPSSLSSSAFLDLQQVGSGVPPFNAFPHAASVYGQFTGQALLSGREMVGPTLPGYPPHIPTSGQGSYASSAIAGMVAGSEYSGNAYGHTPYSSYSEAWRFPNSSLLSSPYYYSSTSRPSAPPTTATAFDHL
# Chain of Mu-type opioid receptor (P35372 whole entry): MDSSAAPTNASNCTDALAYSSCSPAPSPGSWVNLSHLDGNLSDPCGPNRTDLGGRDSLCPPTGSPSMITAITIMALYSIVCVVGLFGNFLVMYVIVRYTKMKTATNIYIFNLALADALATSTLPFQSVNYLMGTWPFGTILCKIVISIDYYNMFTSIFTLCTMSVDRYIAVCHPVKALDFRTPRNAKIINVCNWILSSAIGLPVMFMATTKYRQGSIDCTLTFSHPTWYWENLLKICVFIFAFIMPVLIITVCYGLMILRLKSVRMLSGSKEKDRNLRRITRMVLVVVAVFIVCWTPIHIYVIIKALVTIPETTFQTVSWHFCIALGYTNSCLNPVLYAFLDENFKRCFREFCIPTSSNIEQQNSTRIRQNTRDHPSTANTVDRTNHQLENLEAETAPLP
# Chain of 5-hydroxytryptamine receptor 2A (P35363 whole entry): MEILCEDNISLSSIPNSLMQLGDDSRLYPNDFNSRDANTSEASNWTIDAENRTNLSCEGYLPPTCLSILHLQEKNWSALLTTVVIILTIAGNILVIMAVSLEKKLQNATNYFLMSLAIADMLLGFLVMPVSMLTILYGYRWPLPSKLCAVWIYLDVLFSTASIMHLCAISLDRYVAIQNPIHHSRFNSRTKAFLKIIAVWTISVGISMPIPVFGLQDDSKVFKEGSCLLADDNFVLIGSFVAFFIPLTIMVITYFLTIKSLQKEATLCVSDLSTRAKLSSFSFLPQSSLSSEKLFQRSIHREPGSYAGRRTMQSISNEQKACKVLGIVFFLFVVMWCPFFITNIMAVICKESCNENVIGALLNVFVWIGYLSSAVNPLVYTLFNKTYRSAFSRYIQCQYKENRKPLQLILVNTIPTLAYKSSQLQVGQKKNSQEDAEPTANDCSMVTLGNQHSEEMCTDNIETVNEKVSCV
smiles,measurement,setting,value
O=C(Nc1nc2ccccc2[nH]1)c1ccccc1F,AC50,INS1,3.06 µM (active)
same,AC50,[1],6.17 µM (active)
same,AC50,[2],5.17 µM (active)
same,EC50,BJ [3],> 133 µM (inactive)
same,AC50,[4],6.83 µM (active)
same,EC50,[5],1.86 µM (active)
same,EC50,BJ [6],2.44 µM (active)
same,EC50,BJ [7],6.85 µM (inconclusive)
same,EC50,[8],1.19 µM (active)
same,EC50,BJ [9],2.23 µM (active)
same,AC50,[10],3.82 µM (active)
same,CC50,[11],8.56 µM (active)
same,EC50,[12],1.13 µM (active)
O=C(Cc1ccccn1)NCC[C@@H]1CC[C@H](NC(=O)Nc2ccc(Cl)cc2)[C@H](CO)O1,AbsAC35,[13],154.48 µM
CC[C@H](C)[C@@H]1NC(=O)CNC(=O)c2csc(n2)[C@H](C(C)(C)O)OC(=O)C(C)(C)[C@H](CCCC(C)(Cl)Cl)OC(=O)c2csc1n2 [LYNGBYABELLIN A],AC50,Cryptococcus neoformans [14],2.1 µM (active)
same,AC50,Paired box protein Pax-8,< 0.26 µM (active)
same,AC50,Cryptococcus neoformans [15],2.72 µM (active)
same,AC50,HeLa,< 0.195 µM (active)
O=C(NC1CCCCC1)C(c1ccnc2ccccc12)N1CCc2ccccc2C1 (stereo not given),IC50,[16],17.5 µM (active)
same,IC50,[17],2.31 µM (active)
same,IC50,Caspase-3,9.26 µM (active)
O=C(c1n[nH]cc1-c1cccc(Br)c1)C1CO1 (stereo not given),EC50,[18],> 91.2 µM (inactive)
same,EC50,[19],> 91.2 µM (inactive)
O=C(NCc1ccccc1)C(c1cc2ccccc2o1)n1c(=O)c(-c2ccco2)nc2ccccc21 (stereo not given),IC50,[20],3.07 µM (active)
COc1cccc(-c2cnc3c(NC=O)cc(-c4ccc(N5CCN(C)CC5)cc4)cn23)c1,EC50,[18],> 91.2 µM (inactive)
same,EC50,[19],> 10.1 µM (inactive)
O=C1/C(=C/NCCc2ccccc2)c2ccccc2C(=O)N1Cc1ccccc1,IC50,[16],4.54 µM (active)
same,IC50,[17],10.9 µM (active)
same,IC50,Caspase-3,83.2 µM (inactive)
CCn1c(SCC(=O)NC(=O)NCc2ccco2)nc2sc(C)c(C)c2c1=O,IC50,[21],21.9 µM (inactive)
same,IC50,[22],> 66.6 µM (inactive)
Cc1cccc(CN2CCN(c3ncccn3)CC2)c1,EC50,[23],0.182 µM (active)
same,EC50,Mu-type opioid receptor,92.5 µM (inactive)
O=C(NCc1nc2ccccc2[nH]1)C1=C[C@H](c2ccc3c(c2)OCO3)C[C@H](OCc2ccc(CO)cc2)O1,CC50,[24],> 50 µM (active)
same,IC50,[25],2.79 µM (active)
same,IC50,[26],83.3 µM (inactive)
same,IC50,[27],8.12 µM (active)
COc1cc(/C=C2\CCCc3c2nc2ccccc2c3C(=O)O)cc(Br)c1O,IC50,[28],2.85 µM (active)
same,IC50,[29],3.84 µM (active)
same,AC50,[30],63.8 µM (active)
